Data on 13 molecules can be found in patent publication US20030199584A1, “Reduction of hair growth” (priority 2002, published 2003).

The nature of series [1]: In vitro skin penetration assay, Protocol 2 (skin pretreated 15 minutes with formulation without DFMO). The conditions noted are these: Tables 9 and 10. The class given is in vitro ADME, Golden, Syrian hamsters or Hartley guinea pigs. The source says:
(§1) An in vitro diffusion assay was established based on that reported by Franz. Dorsal skin from Golden, Syrian hamsters or Hartley guinea pigs is clipped with electric clippers, trimmed to the appropriate size and placed in a glass diffusion chamber. The receptor fluid consisted of phosphate buffered saline, an isotonic solution for maintaining cell viability and 0.1% sodium azide, a preservative and was placed in the lower chamber of the diffusion apparatus such that the level of the receptor fluid was in parallel with the mounted skin. After equilibration at 37° C. for at least 30 minutes, 10 μl or 20 μl of the test or control formulation containing equal amounts of DFMO were added to the surface of the skin and gently spread over the entire surface with a glass stirring rod. A radiotracer amount of 14C-DFMO (0.5-1 microCurie per diffusion chamber) was used in the formulations to assess DFMO penetration. Penetration of DFMO was determined by removing an aliquot (400 μL) periodically throughout the course of the experiment, and quantitating radioactivity using liquid scintillation.
This procedure is similar to that described in Protocol 1 with the exception that prior to the application of radiolabeled DFMO, the skin surfaces received 1 ml of the formulation without DFMO. After 15 minutes the formulation was removed and the surface of the skin was gently dried with a cotton swab. […]

Series [2] in a line: In vitro diffusion (Franz) skin penetration assay, Protocol 1, 14C-DFMO through hamster skin. The class given is in vitro ADME, Golden, Syrian hamsters.
Description: as §1

The nature of series [3]: DFMO skin penetration after overnight pretreatment of the skin with fatty acid. The class given is in vitro ADME. Particulars: skin pretreated overnight; DFMO in hydroalcoholic formulation; receptor fluid measured hourly over eight hours (FIG. 1, FIG. 2).
Description: as §1
Further confirmation of the cis fatty acid action on skin penetration was obtained by pretreating the skin overnight with oleic acid or elaidic acid. The following day DFMO was applied to the surface of the skin in the hydroalcoholic formulation.

A short description of series [4]: In vitro diffusion skin penetration assay of DFMO, skin species not named. In kind it is in vitro ADME, Golden, Syrian hamsters or Hartley guinea pigs. The conditions noted are these: for Fold-Enhancement DDP/Control: DDP 10%; for % Applied Dose of DFMO penetrated: cream formulation 1 with or without DDP 10%.
Description: as §1

The format of series [5] is in vitro ADME. Particulars: 1 %. As for the experimental part: DFMO skin penetration was assessed using a modified protocol of the Franz diffusion assay. In this experiment either the SP33 formulation (without DFMO) or the SP33 formulation prepared with dipropylene glycol dimethylether (DPGDME) again with out DFMO was applied to the skin for […]. The formulations were then removed from the skins' surfaces, which were dried with a cotton swab. The hydroalcoholic formulation 1—containing 1% DFMO with radiotracer ^14C-DFMO—was applied to the skin and gently spread over the surface with a glass, stirring rod. Aliquots of the receptor fluid were removed at 3, 6 and 24 hours after DFMO application and penetration was determined using liquid scintillation. As shown in Table 6 enhancement of DFMO penetration through the skin occurred when dipropylene glycol […] was substituted for dipropylene glycol.

Where two headings read alike, the source gives them in different places.

As to `CCCCCCCCCCCCCC(=O)OC(C)C` [IPM, isopropyl myristate], the “Effect on penetration of DFMO through the skin (in words)” value in series [1] is “significantly increased the penetration of DFMO through the skin”.
Take Tween-20: in series [2] (Tween derivative 5% in Hydroalcoholic Formulation 1, hamster skin), the “Fold Enhancement of DFMO penetration” value is listed as 1.54 ± .47 fold.
With `CC12CCC(CC1)C(C)(C)O2` [Cineole, 1,8-cineole], the “Fold Enhancement of DFMO penetration” value in series [2] (Golden Syrian, hamster, 10 %) is 1.91 ± .51 fold.
`CCCCCCCC/C=C/CCCCCCCC(=O)O` [elaidic acid]: in series [2], the “Effect on DFMO skin penetration (in words)” value is given as “devoid of DFMO penetration enhancing properties”. Besides, in series [3], the “Enhancement of DFMO skin penetration after pretreatment” value is “no increase in skin penetration of DFMO”.
For `CCCCCCCC/C=C\CCCCCCCC(=O)O` [Oleic Acid], the “Effect on DFMO skin penetration (in words)” value in series [2] is reported as “increase in skin penetration”. Moreover, the “Fold Enhancement of DFMO penetration” value in series [2] (Golden Syrian, hamster, 10 %) was 2.85 ± .76 fold.
Take `CCCCCCCCCCCCN1CCCC1=O` [DDP, 1-dodecyl-2-pyrrolidanone]: the “Fold-Enhancement DDP/Control” value turned out to be 0.41 fold in series [4] (2 hrs), 0.91 fold in series [4] (4 hrs), 2.00 fold in series [4] (6 hrs) and 5.11 fold in series [4] (24 hrs). For the same molecule, the “% Applied Dose of DFMO penetrated” value in series [4] (2 hrs) is reported as 0.15 ± .01 % Applied Dose; in series [4] (4 hrs) it was 0.52 ± .08 % Applied Dose; in series [4] (6 hrs), 1.26 ± .24 % Applied Dose; in series [4] (24 hrs), 9.31 ± 1.38 % Applied Dose. Also, the “Increase in skin penetration by DFMO” value in series [4] (DDP 10% in cream base Formulation-1) was ≤ 5 fold.
As for Tween-80, in series [2], the “Fold Enhancement of DFMO penetration” value is recorded as 0.502 ± .14 fold and the “Reduction in DFMO penetration” value is ~50%.
In the case of `CC(C)[C@@H]1CC[C@@H](C)CC1=O` [Menthone], in series [2] (Golden Syrian, hamster, 10 %), the “Fold Enhancement of DFMO penetration” value is recorded as 1.99 ± .40 fold.
For Capric/Caprylic Triglyceride [Captex], in series [4], the “Effect on DFMO skin penetration (in words)” value is reported as “increase in DFMO skin penetration”.
Turning to Tween-40, the “Fold Enhancement of DFMO penetration” value in series [2] is reported as 3.07 ± 1.65 fold.
On the same count and under the same terms, with `CCCCCCCCCCC/C=C\CCCCC(=O)O` [Petroselenic Acid] the figure was 1.40 ± 1.5 fold.
On to `CC(C)CCCCCCCCCCCCCCCOC(=O)CCCCCCCCCCCCCCC(C)C` [Isostearyl Isosterate, isostearyl isostearate], for which, in series [1], the “Effect on penetration of DFMO through the skin (in words)” value was “significantly increased the penetration of DFMO through the skin”.
Consider `COCC(C)OCC(C)OC` (centres unmarked) [DPGDME, dipropylene glycol dimethylether], for which the “% Applied Dose of DFMO penetrated” value stood at 7.71 ± 3.1 % Applied Dose in series [5] (3 h), 9.55 ± 3.68 % Applied Dose in series [5] (6 h) and 10.85 ± 3.8 % Applied Dose in series [5] (24 h). Further, the results for the Fold-Enhancement in series [5] (3 h), in series [5] (6 h) and in series [5] (24 h) were 4.64 fold, 3.93 fold and 3.02 fold, respectively.
